In patent publication US20100210654A1, “NOVEL P2Y12 RECEPTOR ANTAGONISTS” (RHEINISCHE FRIEDRICH-WILHELMS UNIVERSITÄT BONN, priority 2007, published 2010):

Key:
[1] = target: T1, human platelet P2Y12 receptors (Homo sapiens, UniProt Q9H244); test: Radioligand binding assay with [3H]PSB-0413 at human platelet membranes; details: human platelet membranes, 5 nM [3H]PSB-0413, 1 h at rt; mean ± SEM; read-out: hP2Y12 Receptor Ki [μM ± SEM] vs. [3H]PSB-0413
T1 construct: Membranes were prepared from human outdated platelets from the blood bank; from tissue; host or cells: human platelets (University of Bonn blood bank), membrane preparation
T1 sequence (Q9H244 whole entry): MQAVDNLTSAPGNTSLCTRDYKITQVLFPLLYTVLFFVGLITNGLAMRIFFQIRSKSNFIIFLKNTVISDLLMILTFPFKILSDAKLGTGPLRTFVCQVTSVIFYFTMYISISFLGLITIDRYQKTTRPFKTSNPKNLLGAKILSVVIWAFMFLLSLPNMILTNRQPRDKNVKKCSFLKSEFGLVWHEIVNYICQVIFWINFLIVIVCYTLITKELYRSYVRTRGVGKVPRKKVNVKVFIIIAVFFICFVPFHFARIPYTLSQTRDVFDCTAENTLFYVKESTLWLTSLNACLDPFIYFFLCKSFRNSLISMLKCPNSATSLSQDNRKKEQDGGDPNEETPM
Description: Membranes were prepared from human outdated platelets from the blood bank. Outdated human platelets were obtained from the University of Bonn blood bank 4-5 days after donation. Platelet rich plasma was washed by centrifugation (10 min at 1000 g) in a buffer consisting of 50 mM Tris-HCl, pH 7.4, 5 mM EDTA and 150 mM NaCl. The supernatant was centrifuged twice (48400 g for 60 min) and the resultant platelet pellet were resuspended in 5 mM Tris-HCl (pH 7.4) containing 5 mM EDTA. The platelets were homogenized by a homogenizer. The final suspension was stored frozen as multiple aliquots at −80° C. until needed. Protein concentrations were determined by the method of Lowry using a Sigma Chemie protein assay kit.
(§1) Radioligand binding assays were performed using 5 nM [^3H]PSB-0413 and 100 μg of protein in Tris-HCl buffer 50 mM, pH 7.4, as previously described. (El-Tayeb, A., Griessmeier, K. J, Müller, C. E. Bioorg. Med. Chem. Lett. 2005, 15, 5450-52; Atzler, K. Doctoral Thesis, University of Bonn, 2006). Competition by 10 μM of test compound was initially determined. The mixture was incubated for 1 h at rt followed by filtration through GF/B filters. Nonspecific binding was determined with 1 mM ADP or 250 μM RB 2. […] At least three independent experiments were performed each in triplicate.
(§2) The data were analyzed using GraphPad Prism 4.0 (GraphPad Software, Inc., San Diego, Calif.).

[2] = target: mouse P2Y2 receptor (Mus musculus, UniProt P35383); test: Inhibition of agonist-induced calcium mobilization in NG108-15 cells; assay type: cell-based; details: mean ± SEM, read-out: mP2Y2 Receptor IC50 (μM ± SEM)
Sequence of mouse P2Y2 receptor (P35383 whole entry): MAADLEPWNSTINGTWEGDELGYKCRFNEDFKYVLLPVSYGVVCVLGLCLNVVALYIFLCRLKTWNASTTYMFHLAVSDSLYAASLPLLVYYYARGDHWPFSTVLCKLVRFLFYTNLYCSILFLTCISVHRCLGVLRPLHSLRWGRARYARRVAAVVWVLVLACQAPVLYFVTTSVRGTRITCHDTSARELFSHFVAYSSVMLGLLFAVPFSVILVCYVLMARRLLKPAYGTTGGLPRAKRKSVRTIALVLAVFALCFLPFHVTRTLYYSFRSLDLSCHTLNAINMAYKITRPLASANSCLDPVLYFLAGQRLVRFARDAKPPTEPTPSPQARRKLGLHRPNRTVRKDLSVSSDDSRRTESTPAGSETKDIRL
Description: (§3) Inhibition of agonist-induced calcium mobilization was determined as previously described (Kaulich M. et al, Drug Dev. Res. 2003, 59, 72-81) using NG108-15 cells for the mouse P2Y2 receptor, or human recombinant P2Y receptors stably expressed in human astrocytoma cells (El-Tayeb, A. et al., J. Med. Chem. 2006, 49, 7076-87).
as §2

[3] = target: T2, hP2Y2 Receptor (Homo sapiens, UniProt P41231); test: Inhibition of agonist-induced calcium mobilization, recombinant receptor in human astrocytoma cells; assay type: cell-based; details: mean ± SEM
T2 construct: expressed in transfected cells; host or cells: human astrocytoma cells
T2 sequence (P41231 whole entry): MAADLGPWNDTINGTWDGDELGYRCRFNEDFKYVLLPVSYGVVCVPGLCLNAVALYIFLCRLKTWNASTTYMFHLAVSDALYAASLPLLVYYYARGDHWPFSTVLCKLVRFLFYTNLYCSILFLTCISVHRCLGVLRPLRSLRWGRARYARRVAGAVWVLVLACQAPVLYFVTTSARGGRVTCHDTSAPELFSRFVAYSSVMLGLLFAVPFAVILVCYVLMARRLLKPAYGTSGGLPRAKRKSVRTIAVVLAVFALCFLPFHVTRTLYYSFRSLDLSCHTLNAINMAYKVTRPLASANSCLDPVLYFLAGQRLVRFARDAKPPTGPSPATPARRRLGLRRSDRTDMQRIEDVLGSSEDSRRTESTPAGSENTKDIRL
Description: as §3, §2

[4] = target: T3, P2Y12 (Homo sapiens, UniProt Q9H244); test: GTP shift experiments (radioligand binding in presence and absence of GTP); set-up: Membranes were prepared from human outdated platelets from the blood bank; from tissue; host or cells: human platelets (University of Bonn blood bank), membrane preparation; details: presence and absence of GTP (100 μM); no shift = antagonist rather than agonist
Description: as §1
Target sequence in this assay (Q9H244 whole entry): as the sequence (Q9H244 whole entry) above
Selected compounds were investigated for their functionality in GTP shift experiments. Radioligand binding studies as described above were performed in the presence and absence of GTP (100 μM).

[5] = target: hP2Y4 Receptor (Homo sapiens, UniProt P51582); test: Inhibition of agonist-induced calcium mobilization, recombinant receptor in human astrocytoma cells; assay type: cell-based; details: mean ± SEM
Sequence of hP2Y4 Receptor (P51582 whole entry): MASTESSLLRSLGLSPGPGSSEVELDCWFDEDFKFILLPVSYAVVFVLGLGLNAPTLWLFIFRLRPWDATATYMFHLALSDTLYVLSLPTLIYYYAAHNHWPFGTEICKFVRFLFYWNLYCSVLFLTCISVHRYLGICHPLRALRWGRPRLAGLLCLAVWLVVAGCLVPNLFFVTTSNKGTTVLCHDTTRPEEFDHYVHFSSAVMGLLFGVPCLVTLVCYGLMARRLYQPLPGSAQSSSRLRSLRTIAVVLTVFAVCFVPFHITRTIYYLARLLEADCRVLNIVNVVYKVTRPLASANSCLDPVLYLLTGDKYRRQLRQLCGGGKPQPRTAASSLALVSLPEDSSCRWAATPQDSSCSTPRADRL
Description: as §3, §2

[6] = target: rP2Y6 Receptor (Rattus norvegicus, UniProt Q63371); test: as above; assay type: cell-based; details: mean ± SEM
Sequence of rP2Y6 Receptor (Q63371 whole entry): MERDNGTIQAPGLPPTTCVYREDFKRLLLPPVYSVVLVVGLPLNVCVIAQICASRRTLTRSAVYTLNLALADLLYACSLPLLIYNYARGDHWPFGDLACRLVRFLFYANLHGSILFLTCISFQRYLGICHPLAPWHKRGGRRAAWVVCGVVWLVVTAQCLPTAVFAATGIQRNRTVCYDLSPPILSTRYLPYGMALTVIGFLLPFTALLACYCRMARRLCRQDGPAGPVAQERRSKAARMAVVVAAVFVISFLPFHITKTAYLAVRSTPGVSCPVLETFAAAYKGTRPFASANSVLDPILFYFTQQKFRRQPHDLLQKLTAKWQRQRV
Description: as §3, §2

[7] = target: T3, P2Y12; details: recent review article (Abbracchio et al. 2006); read-out: Ki value as P2Y12 antagonist; cited from earlier work
Target sequence in this assay (Q9H244 whole entry, species assumed): as the sequence (Q9H244 whole entry) above

| SMILES | Ki [1] [µM] | IC50 [2] [µM] | IC50 [3] [µM] | right-shift of the concentration-inhibition curve in GTP shift experiments [4] | IC50 [5] [µM] | IC50 [6] [µM] | Ki [7] [µM] |
| --- | --- | --- | --- | --- | --- | --- | --- |
| Nc1c(S(=O)(=O)O)cc(Nc2ccccc2)c2c1C(=O)c1ccccc1C2=O [Entry 17] | 9.83 ± 2.43 | 11.1 ± 3 | 5.61 ± 0.47 | – | – | – | – |
| Nc1ncnc2c1ncn2[C@@H]1O[C@H](COP(=O)(O)OP(=O)(O)O)[C@@H](O)[C@H]1O [ADP, reference compound] | – | – | – | significant right-shift | – | – | – |
| Nc1c(S(=O)(=O)[O-])cc(Nc2ccc(Nc3ncccn3)c(S(=O)(=O)[O-])c2)c2c1C(=O)c1ccccc1C2=O.[Na+].[Na+] [Entry 33] | 0.0507 ± 0.016 | – | – | did not | 9.04 ± 1.2 | 28.6 ± 2.7 | – |
| COc1nc(Cl)nc(Nc2ccc(Nc3cc(S(=O)(=O)[O-])c(N)c4c3C(=O)c3ccccc3C4=O)cc2S(=O)(=O)[O-])n1.[Na+].[Na+] [Entry 37] | 0.66 ± 0.12 | – | – | did not | – | – | – |
| Nc1c(S(=O)(=O)O)cc(Nc2ccc(Cl)cc2)c2c1C(=O)c1ccccc1C2=O [Entry 15] | 7.35 ± 1.72 | 20 ± 7 | 4.46 ± 0.75 | – | > 3 | > 10 | – |
| Nc1c(S(=O)(=O)O)cc(Nc2cccc3ccccc23)c2c1C(=O)c1ccccc1C2=O [Entry 25] | – | 10.7 ± 1 | 6.67 ± 0.32 | – | 10.1 ± 1.4 | 26.7 | – |
| Nc1c(S(=O)(=O)O)cc(Nc2ccc(Nc3ccccc3)cc2)c2c1C(=O)c1ccccc1C2=O [Entry 18] | 1.85 ± 0.57 | 30 ± 7 | – | – | > 3 | > 1 | – |
| Nc1c(S(=O)(=O)O)cc(Nc2ccc(Nc3nc(Cl)nc(Nc4cccc(S(=O)(=O)O)c4)n3)c(S(=O)(=O)O)c2)c2c1C(=O)c1ccccc1C2=O [Reactive Blue 2, reference compound] | – | – | – | did not | – | – | 1.3 |
